Test results reported in patent publication US11198673B2, “Therapeutic compounds and compositions” (eXIthera Pharmaceuticals, Inc., priority 2014, dated 2021).

Legend:
[1] = target: T1, human Factor XIa (Homo sapiens, UniProt P03951); test: Factor XIa enzyme inhibition assay (IC50, purified enzyme); assay type: biochemical; conditions: purified enzyme 0.25 nM, substrate 50 μM; read-out: Potency hFXIa IC50
T1 construct: Enzyme: Factor XIa; 0.25 μM in 50% glycerol (20 μg/mL)
Outline: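 Fluorogenic Glp-Pro-Arg-AMC cleavage, 50 μM substrate, 0.25 nM enzyme, in 20 mM Hepes pH 7.4, 150 mM NaCl, 0.02% Tween 20. Serial two-fold compound dilutions from starting concentrations of 20, 2 and 0.2 μM. Read every minute for 30 min at 30° C; IC50 from a four-parameter fit of dose-response.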

[2] = target: T2, Factor Xa (Homo sapiens, UniProt P00742); test: Dose response assay for protease inhibitors: Factor Xa (FXIa fold selectivity); assay type: biochemical; conditions: fold selectivity for FXIa over Factor Xa
T2 construct: Factor Xa; 0.2 μM in 50% glycerol (9.2 μg/mL)

[3] = target: T3, Thrombin (Homo sapiens, UniProt P00734); test: Dose response assay for protease inhibitors: thrombin (FXIa fold selectivity); assay type: biochemical; conditions: fold selectivity for FXIa over thrombin
T3 construct: Thrombin; 0.2 μM in 50% glycerol (7.34 μg/mL)

[4] = system: Trypsin; test: Dose response assay for protease inhibitors: trypsin (FXIa fold selectivity); assay type: biochemical; conditions: fold selectivity for FXIa over trypsin
[5] = β-Lactam stability in rat plasma; assay type: in vitro ADME; conditions: normal rat plasma, room temperature; read-out: Rat Plasma Stability (T1/2; min)
Outline: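 Compounds incubated in normal rat plasma at room temperature, sampled into acetonitrile from 2 to 480 min. Supernatants analysed by HPLC-MS on C18, extracted ion chromatograms of parent and parent+18 (H2O adduct) integrated; T½ = ln(2)/k from single-phase exponential decay fit.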

[6] = in vitro; conditions: both, human, plasma, pH 7.4
Description: The following procedure was used to determine the plasma protein binding of a test compound in pooled plasma from human (mixed gender) via equilibrium dialysis in a 96-well plate format. The dialysate compartment is loaded with phosphate-buffered saline (pH 7.4) and the sample side is loaded with plasma spiked with the test compound at a concentration of 10 μM. After loading, samples are covered and incubated for 4 hours at 37° C. After incubation, each compartment is sampled, diluted with acetonitrile/buffer and centrifuged. The supernatants are analyzed by HPLC-MS/MS. The amount measured in the plasma compartment includes both free and bound drug, while that on the buffer side represents free drug only; the differences are used to calculate the percentage plasma protein bound.

[7] = physchem; assay type: physicochemical; conditions: pH 7.4, aqueous buffer, kinetic from dmso stock
Description: The test compound was prepared at 200 μM in PBS from a 10 mM DMSO stock solution. The final DMSO concentration was 2%. The PBS buffer samples were mixed thoroughly followed by incubation at room temperature for 24 h. At the end of the incubation, the PBS buffer samples were centrifuged and supernatants analyzed by HPLC.

[8] = in vitro; conditions: both, human, microsomes, pH 7.4
Description: The following procedure was used to determine the stability of a test compound in pooled liver microsomes from human (mixed gender) in 96-well plate format. The test compound was quantified at five time points by HPLC-MS/MS analysis. The final microsomal protein concentration in the assay was 0.1 mg/mL. […] The test compound was pre-incubated with human liver microsomes in phosphate buffer (pH 7.4) for 5 min in a 37° C. shaking waterbath. The reaction was initiated by adding NADPH-generating system and incubated for 0, 15, 30, 45, and 60 minutes. The reaction was stopped by transferring the incubation mixture to acetonitrile/methanol. Samples were then mixed and centrifuged and the supernatants used for HPLC-MS/MS analysis. Peak areas corresponding to the test compound were recorded. The compound remaining was calculated by comparing the peak area at each time point to time zero.

T1 sequence (P03951 388-625 limits assumed): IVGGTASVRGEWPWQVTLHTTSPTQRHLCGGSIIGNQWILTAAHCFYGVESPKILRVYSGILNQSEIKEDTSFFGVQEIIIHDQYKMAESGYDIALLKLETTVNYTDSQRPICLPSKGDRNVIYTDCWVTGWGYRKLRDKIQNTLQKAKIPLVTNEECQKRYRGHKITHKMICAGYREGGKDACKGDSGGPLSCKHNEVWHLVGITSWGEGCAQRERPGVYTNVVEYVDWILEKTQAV
T1 sequence (P03951 19-387 partner limits assumed): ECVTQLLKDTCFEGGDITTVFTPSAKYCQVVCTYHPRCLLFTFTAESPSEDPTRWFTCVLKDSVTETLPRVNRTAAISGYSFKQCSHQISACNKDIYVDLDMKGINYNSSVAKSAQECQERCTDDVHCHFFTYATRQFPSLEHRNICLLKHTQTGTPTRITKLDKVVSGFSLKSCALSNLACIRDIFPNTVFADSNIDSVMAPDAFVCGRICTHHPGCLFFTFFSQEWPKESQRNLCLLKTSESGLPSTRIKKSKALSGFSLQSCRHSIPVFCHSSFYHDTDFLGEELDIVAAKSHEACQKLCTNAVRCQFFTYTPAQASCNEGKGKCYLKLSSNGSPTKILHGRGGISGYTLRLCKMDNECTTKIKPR
T2 sequence (P00742 235-488 limits assumed): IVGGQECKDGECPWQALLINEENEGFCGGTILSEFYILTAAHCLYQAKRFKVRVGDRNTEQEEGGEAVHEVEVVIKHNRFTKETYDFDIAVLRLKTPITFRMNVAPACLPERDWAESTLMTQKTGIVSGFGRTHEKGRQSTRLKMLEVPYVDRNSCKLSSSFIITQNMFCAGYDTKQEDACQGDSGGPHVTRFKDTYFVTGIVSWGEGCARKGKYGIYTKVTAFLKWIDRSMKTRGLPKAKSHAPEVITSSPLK
T2 sequence (P00742 41-179 partner limits assumed): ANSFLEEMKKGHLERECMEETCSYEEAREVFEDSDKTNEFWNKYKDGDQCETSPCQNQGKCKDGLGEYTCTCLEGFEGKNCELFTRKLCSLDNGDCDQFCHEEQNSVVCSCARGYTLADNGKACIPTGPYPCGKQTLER

## O=C(O)[C@@H]1[C@@H](CCc2cccc(Cl)c2)C(=O)N1C(=O)N[C@@H](C1CCCCC1)C(F)(F)F [Example 134]
[1]
  IC50: 100 to 1000 nM
[2]
  FXIa Fold Selectivity FXa: G (“G” indicates 1-500)
[3]
  FXIa Fold Selectivity Thrombin: G (“G” indicates 1-500)
[4]
  FXIa Fold Selectivity Trypsin: G (“G” indicates 1-500)
[5]
  half-life: > 1.67 h
[6]
  fraction unbound at 4 h, 10 µM: < 0.02
[7]
  solubility at 4 h: > 100 µM
[8]
  half-life at 0.1 µM: 0.5 to 1 h

## C[C@@H](NC(=O)N1C(=O)[C@H](Cc2ccncc2)[C@H]1C(=O)O)c1ccc2c(c1)OC(F)(F)O2 [Example 169]
[1]
  IC50: 100 to 1000 nM
[2]
  FXIa Fold Selectivity FXa: G (“G” indicates 1-500)
[3]
  FXIa Fold Selectivity Thrombin: H (“H” indicates 500-1000)
[4]
  FXIa Fold Selectivity Trypsin: G (“G” indicates 1-500)
[5]
  half-life: > 1.67 h
[6]
  fraction unbound at 4 h, 10 µM: 0.02 to 0.1
[7]
  solubility at 4 h: > 100 µM
[8]
  half-life at 0.1 µM: > 1 h
